{"source": "patent US20150125904A1", "about": "“PROBE INCORPORATION MEDIATED BY ENZYMES” (Massachusetts Institute of Technology, priority 2012, published 2015)", "key": {"W37TLplA": {"molecular_target": "T1, W37TLplA (Escherichia coli, UniProt P32099, W38T)", "T1 construct": "His6; made in house; host or cells: E. coli (bacterial lysate, not purified)", "T1 sequence (P32099 2-338 W38T)": "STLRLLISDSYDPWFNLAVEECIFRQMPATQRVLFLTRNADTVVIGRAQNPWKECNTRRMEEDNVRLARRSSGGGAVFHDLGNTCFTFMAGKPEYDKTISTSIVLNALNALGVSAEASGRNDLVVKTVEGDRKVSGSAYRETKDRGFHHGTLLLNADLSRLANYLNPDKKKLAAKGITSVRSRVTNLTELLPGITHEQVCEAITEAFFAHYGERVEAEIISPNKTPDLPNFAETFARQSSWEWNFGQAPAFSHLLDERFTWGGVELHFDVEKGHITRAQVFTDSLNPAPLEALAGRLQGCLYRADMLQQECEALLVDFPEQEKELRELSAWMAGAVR", "assay": "UPLC screening of LplA single mutants for Pacific Blue ligation", "type": "biochemical, E. coli", "conditions": "after 12 hours, 500 μM probe", "procedure": "In vitro ligation reactions were assembled as described in the main text with the following modifications. 5 μL bacterial lysate containing LplA was used in place of purified enzyme. Total reaction volume was 25 μL. Instead of LAP peptide, 150 μM purified E2p protein (see Uttamapinant, et al., 2010) was used. Reactions proceeded overnight at 30° C. with 500 μM probe. Ultra Performance Liquid Chromatography (UPLC) was used to detect any product formation. All products were confirmed by in-line mass spectrometry."}, "W37VLplA [1]": {"molecular_target": "T2, W37VLplA (Escherichia coli, UniProt P32099, W38V)", "T2 sequence (P32099 2-338 W38V)": "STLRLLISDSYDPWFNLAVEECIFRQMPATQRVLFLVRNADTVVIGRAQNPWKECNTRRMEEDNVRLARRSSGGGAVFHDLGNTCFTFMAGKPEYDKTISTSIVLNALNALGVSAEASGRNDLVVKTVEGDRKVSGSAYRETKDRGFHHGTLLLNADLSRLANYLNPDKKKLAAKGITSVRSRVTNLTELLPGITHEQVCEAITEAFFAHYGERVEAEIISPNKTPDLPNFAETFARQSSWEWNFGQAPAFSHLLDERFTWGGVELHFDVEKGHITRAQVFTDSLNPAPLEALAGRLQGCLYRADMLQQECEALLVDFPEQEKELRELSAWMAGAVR", "conditions": "previously determined, cited from earlier work"}, "[2]": {"conditions": "cited from earlier work"}, "[3]": {"assay": "Photophysical properties, pKa and pH profiles of coumarin probes", "type": "physicochemical", "conditions": "150 μM solutions, pH 3-10 buffers", "procedure": "Fluorescence emission was recorded for 150 μM solutions, using a TECAN Safire Microplate Reader and a plastic transparent-bottomed 384-well plate (Greiner). pH 3-6 buffers were prepared by mixing different ratios of 0.1M acetic acid and 0.1M sodium acetate-trihydrate solutions. pH 7-10 buffers were prepared by mixing different ratios of 0.1M Na2HPO4 and either 0.1M HCl (for pH 7-9 buffers) or 0.1M NaOH (for pH 10 buffer). Final pH adjustments in all buffer solutions were made by adding small amount of 1M HCl or 1M NaOH."}, "W37VLplA [4]": {"molecular_target": "T2, W37VLplA", "assay": "In vitro coumarin ligation onto LAP2 (HPLC)", "type": "biochemical, E. coli", "conditions": "500 μM coumarin probe, 2 μM W37VLplA, 55-minute reaction", "procedure": "Reactions were assembled as follows: 2 μM LplA enzyme, 150 μM LAP2 synthetic peptide (sequence: […]; see Puthenveetil et al., J. Am. Chem. Soc. 2009, 131 16430-16438), 500 μM 7-aminocoumarin 6 probe, 5 mM ATP, and 5 mM Mg(OAc)2 in 25 mM Na2HPO4 pH 7.2. The reaction mixture was incubated at 30° C. for 2 hours and quenched with EDTA (final concentration 100 mM). The mixture was analyzed on a Varian Prostar HPLC using a reverse-phase C18 Microsorb-MV 100 column (250×4.6 mm). Chromatograms were recorded at 210 nm. We used a 10-minute gradient of 30-60% acetonitrile in water with 0.1% trifluoroacetic acid under 1 mL/minute flow rate.\n2 μM ^W37VLplA and 500 μM coumarin probe were used in one case. Aliquots from the reaction were collected and quenched with EDTA over 55 minutes. For the other case, 1 μM ^W37VLplA and 100 μM coumarin probe were used, and aliquots were collected and quenched over 70 minutes. After HPLC analysis, percent product conversions were calculated by dividing the product peak area by the sum of (product+starting material) peak areas."}, "Trp37→Ile LplA": {"molecular_target": "Trp37→Ile LplA (Escherichia coli, UniProt P32099, W38I)", "sequence (P32099 2-338 W38I)": "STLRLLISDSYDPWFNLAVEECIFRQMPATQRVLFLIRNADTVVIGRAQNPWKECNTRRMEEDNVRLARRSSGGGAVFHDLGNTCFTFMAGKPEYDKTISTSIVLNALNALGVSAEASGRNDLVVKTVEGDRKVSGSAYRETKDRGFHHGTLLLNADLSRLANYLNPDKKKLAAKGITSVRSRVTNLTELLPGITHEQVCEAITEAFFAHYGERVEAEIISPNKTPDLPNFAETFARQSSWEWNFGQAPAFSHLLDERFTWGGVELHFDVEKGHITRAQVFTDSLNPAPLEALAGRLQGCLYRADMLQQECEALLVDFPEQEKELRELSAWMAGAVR", "conditions": "30 min reaction, 500 μM probe; normalized to TCO2/Trp37→Val", "procedure": "(§1) LplA protein was purified as previously described2 and stored at −80° C. in 20 mM Tris-HCl, pH 7.5 supplementated with 10% v/v glycerol. Reactions were quenched with 30 mM EDTA (final concentration) and resolved by HPLC (Varian ProStar) on a C-18 column using a linear gradient of 25-60% acetonitrile in H2O (with 0.1% v/v trifluoroacetic acid) over 14 minutes. Species were detected at 210 nm absorbance. Peaks corresponding to LAP and its trans-cyclooctene adducts were confirmed by ESI mass spectrometry. The extent of conversion was calculated from ratios of peak areas, neglecting minor extinction coefficient changes to LAP due to trans-cyclooctene ligation.\n(§2) The relative abilities of wild-type and mutant ligases to ligate TCO1-3 onto LplA acceptor peptide (LAP) were measured by an HPLC assay after 30 min. reaction time. […] Errors, ±1 s. d."}, "Trp37→Gly LplA": {"molecular_target": "Trp37→Gly LplA (Escherichia coli, UniProt P32099, W38G)", "sequence (P32099 2-338 W38G)": "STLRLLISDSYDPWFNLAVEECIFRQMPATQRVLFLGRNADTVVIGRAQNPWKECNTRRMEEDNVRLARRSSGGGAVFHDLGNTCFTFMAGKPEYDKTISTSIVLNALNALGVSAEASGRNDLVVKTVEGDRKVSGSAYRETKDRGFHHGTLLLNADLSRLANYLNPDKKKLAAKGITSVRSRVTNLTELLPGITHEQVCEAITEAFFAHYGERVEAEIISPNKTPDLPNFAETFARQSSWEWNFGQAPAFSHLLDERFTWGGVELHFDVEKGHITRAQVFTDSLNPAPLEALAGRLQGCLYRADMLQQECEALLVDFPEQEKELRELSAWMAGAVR", "conditions": "30 min reaction, 500 μM probe; normalized to TCO2/Trp37→Val", "procedure": "as §1, §2"}, "[5]": {"molecular_target": "Trp37→Val LplA (W37VLplA) (Escherichia coli, UniProt P32099, W38V)", "sequence (P32099 2-338 W38V)": "as the sequence (P32099 2-338 W38V) above", "conditions": "30 min reaction, 500 μM probe; normalized to TCO2/Trp37→Val", "procedure": "as §1, §2"}, "[6]": {"tested_on": "LAP-LDL receptor on HEK cells", "assay": "Comparison of Diels-Alder cycloaddition, CuAAC and strain-promoted cycloaddition for cell surface fluorescence labeling", "type": "cell-based, human", "conditions": "3 min staining after TCO2 ligation", "source_text": "(A) HEK cells expressing LAP-LDL receptor and a nuclear cyan fluorescent protein transfection marker (shown in cyan, overlaid with DIC) were labeled in two steps, using three methodologies, as indicated by the scheme: Diels-Alder cycloaddition (left), CuAAC (middle), and strain-promoted cycloaddition (right). Fernandez-Suarez et al., Nature Biotechnology 2007, 25, 1483-1487. For the latter two, LAP was first derivatized with 8-azidooctanoic acid under conditions known to give quantitative yield. DIBO is dibenzylcyclooctyne. In all three cases, the second step was performed for 3 min., using the indicated Alexa 647 conjugates at the three indicated concentrations. Cells were imaged live after brief rinsing. Specific fluorescence staining with 1 μM DIBO-Alexa 647 was detectable (shown with enhanced contrast in inset). (B) Comparing cell viability after cell surface fluorescence labeling. Chinese hamster ovary cells expressing LAP-LDL receptor were labeled using Diels-Alder cycloaddition or CuAAC under the indicated conditions. Cell viability was then measured in triplicate, with untransfected and untreated cells defined as 100% viable. […]\nThese were previously determined, by subsequent lipoic acid pulse labeling, to give almost quantitative yield of 8-azidooctanoic acid ligation. […]"}, "[7]": {"assay": "Photophysical properties of phycoerythrin and AlexaFluor 568", "type": "physicochemical"}}, "note": "Where two headings read alike, the source gives them in different places.", "data": [{"compound": "6,8-difluoro-7-hydroxycoumarin [Pacific Blue]", "values": [{"measurement": "conversion to ligation product", "setting": "W37TLplA", "result": "~50", "unit": "%"}]}, {"compound": "O=C(O)CCCCNC(=O)c1cc2ccc(O)cc2oc1=O", "note": "[7-hydroxycoumarin 2]", "values": [{"measurement": "Km", "setting": "W37VLplA [1]", "result": "56 ± 20", "unit": "µM"}, {"measurement": "kcat", "setting": "W37VLplA [1]", "result": 0.019, "unit": "s⁻¹"}, {"measurement": "kcat", "setting": "W37VLplA [1]; listed as HC4", "result": "0.019 ± 0.004", "unit": "s⁻¹"}, {"measurement": "emission maximum", "setting": "[2]; Sun, et al.", "result": 448, "unit": "nm"}, {"measurement": "excitation maximum", "setting": "[2]; Sun, et al.", "result": 386, "unit": "nm"}, {"measurement": "extinction coefficient", "setting": "[2]; Sun, et al.", "result": "36,700 M^−1 cm^−1"}, {"measurement": "pKa of 7-OH substituent", "setting": "[2]", "result": 7.5}, {"measurement": "pH dependence of fluorescence", "setting": "[3]", "result": "drops sharply at pH values <6.5"}, {"measurement": "LAP converted to product", "setting": "W37VLplA [4]", "result": 46, "unit": "%"}]}, {"compound": "O=C(O)CCCNC(=O)OC[C@H]1[C@@H]2CC/C=C/CC[C@@H]21", "note": "[TCO3, (rel-1R,8S,9R,4E)-Bicyclo[6.1.0]non-4-ene-9-ylmethyl-N-butyric acid carbamate]", "values": [{"measurement": "Ligation efficiency (average, normalized product percentage), Trp37→Ile", "setting": "Trp37→Ile LplA", "result": "6.0 ± 0.6", "unit": "%"}, {"measurement": "Ligation efficiency (average, normalized product percentage), Trp37→Gly", "setting": "Trp37→Gly LplA", "result": "22.6 ± 2.0", "unit": "%"}, {"measurement": "Ligation efficiency (average, normalized product percentage), Trp37→Val", "setting": "[5]", "result": "6.6 ± 0.6", "unit": "%"}]}, {"compound": "Aminobenzyltetrazine Alexa Fluor 647 [Tz1-Alexa 647]", "values": [{"measurement": "dye concentration giving specific signal", "setting": "[6]", "result": 10, "unit": "nM"}]}, {"compound": "R-phycoerythrin", "values": [{"measurement": "brightness relative to AlexaFluor 568", "setting": "[7]", "result": "> 25", "unit": "times"}]}]}
